This is an account of results in article PMC6466596, “New Chloramphenicol Derivatives from the Viewpoint of Anticancer and Antimicrobial Activity” (Antibiotics, 2019).

For data set [1], the system named is E. coli 70S ribosome. As to the kind of experiment: Competition with [14C]-chloramphenicol for binding to the ribosome (filter binding). The note with it: calculated from IC50 by Cheng–Prusoff; [14C]-CAM constant at 10 μM; read-out: Ki (binding affinity constant). As to the method:
Reassociated 70S ribosomes were prepared from E. coli K12 cells as described previously. 70S ribosomes were incubated in buffer A (100 mM Tris-HCl pH 7.2, 100 mM ammonium acetate, 10 mM magnesium acetate, 6 mM β-mercaptoethanol) with 10 μΜ [^14C]-chloramphenicol (150 dpm/pmol) at a final concentration of 0.20 μM [23]. After incubation for 10 min at 37 °C, the mixture was diluted with 3 mL of cold buffer A and filtered through a 25-mm diameter cellulose nitrate membrane filter (Millipore 0.45 μm pore size). The filter was washed three times with 3 mL of cold buffer A and the radioactivity which remained bound on the filter was measured. The binding of [^14C]-chloramphenicol was studied in competition with CAM or PA–CAM conjugates by keeping the concentration of [^14C]-CAM constant (10 μM) and increasing the concentration of non-radioactive conjugates.
To clarify whether the new PA–CAM conjugates maintain their binding site on the 70S bacterial ribosome, we carried out competition experiments. […] The affinity constants, Ki, were calculated using the following Cheng–Prusoff relationship (1) and their values are presented in Table 3. According to the values of Table 3, the decrease of the affinity for 70S ribosome follows the order 3>7>4>6>CAM>5. (1) Ki=IC50/1+[I]/KD where [I] is the concentration of [^14C]-CAM (constant at 10 μM) and KD is the dissociation constant of ribosome–chloramphenicol complex formation.

Data set [2] relates to Escherichia coli ΔTolC. As to the kind of experiment: In vivo antibacterial activity (growth inhibition in LB culture, OD560). The note with it: read-out: EC50 Escherichia coli ΔTolC. In kind it is cell-based. As to the method:
(§1) The in vivo antibacterial activity of the conjugates was determined using the following three bacterial strains: wild-type Escherichia coli K12 (E. coli K12), Escherichia coli ΔTolC mutant strain (E. coli ΔTolC) lacking the TolC protein, which is involved in the efflux pumps operation, and wild-type Staphylococcus aureus (S. aureus). The anti-tumor activity of the conjugates was assessed using the human ZL34 and MeT5A cell lines, which were kindly offered by Professor G. Stathopoulos (University of Patras). ZL34 are cancer cells, derived from malignant pleural mesothelioma, while MeT5A are immortalized cells, which originate from healthy mesothelial tissue.
(§2) For the experimental procedures, the bacteria were cultured in luria broth (LB) medium (tryptone 10 g/L, yeast extract 5 g/L, NaCl 10 g/L) as previously described. The bacteria cultures were grown in the presence of CAM or each conjugate at increasing concentration (1–100 μM). The cultures were incubated at 37 °C until the absorbance (OD560) of the reference culture in the absence of antibiotic reached the value of 0.7. At this point, the growth of the cultures was terminated by placing them in an ice bath, and the measurement of the optical density followed. These measurements were used to calculate the half-maximal effective concentration (EC50) values.

The test system of data set [3] is Staphylococcus aureus. The data set is described as above. The conditions noted are these: read-out: EC50 Staphylococcus aureus. It counts as cell-based. As to the method: as §1, §2
Data set [4] has as its system Escherichia coli K12. The description is as above. In kind it is cell-based. The note with it: K12, read-out: EC50 Escherichia coli K12. As to the method:
as §1, §2

Data set [5] concerns mitochondrial cytochrome c oxidase subunit II (COX2) in ZL34 cells. As to the kind of experiment: Immunoblotting of COX2 (mitochondrial protein synthesis). It counts as cell-based, human. The conditions noted are these: 60 μΜ, 48 h; normalized to actin; result in words. As to the method:
(§3) Cell lysates were prepared after treatment with 60 μΜ of conjugates for 48 h. Total cellular proteins were isolated at 4 °C using RIPA buffer (ABCAM) and mixed with 4% SDS-containing loading buffer. Protein concentrations were determined using Bradford assay. Lysates ([…]) were reduced in Laemmli buffer containing 1 mM dithiothreitol, resolved by 10% SDS-PAGE and electrotransfered to Immobilon-P PVDF membranes (Millipore, Massachusetts, USA) according to standard procedures. Blots were incubated at 4 °C overnight with rabbit monoclonal antibody against mitochondrial cytochrome c oxidase subunit II (COX2) (anti-mtCO2 antibody, ABCAM) at a 1:1000 dilution in blocking buffer. After washing with TBS-Tween and incubation with secondary antibody coupled to horse radish peroxidase, protein bands were visualized with ECL^TM chemiluminescence reagent (Amersham) and detected by autoradiography. The intensity of bands was quantified by Image Analysis, using the Image-Pro Plus 7 software (Media Cybernetics). Blots were re-probed with a mouse anti-actin antibody (Santa Cruz Biotechnology) to verify equal protein loading.
In general terms: Immunoblotting shows a protein as a band on a membrane.

The subject of data set [6] is mitochondrial cytochrome c oxidase subunit II (COX2) in Met5A cells. The description is as above. It counts as cell-based, human. The note with it: 60 μΜ, 48 h; compared to ZL34; result in words. As to the method:
as §3

Data set [7] deals with Met5A cells. Put plainly: Quantification of intracellular levels of conjugates and polyamines by RP-HPLC-DAD. In kind it is cell-based, human. The conditions noted are these: Met5A cells treated with 60 μΜ of compound; for Intracellular compound concentration: mean ± SD, three repetitions. As to the method:
(§4) PAs and conjugates 3 and 4 in ZL34 and Met5A cells were determined by reverse phase high-performance liquid chromatography (RP-HPLC-DAD), as described previously. Briefly, 100 mg cells (wet weight), either ZL34 or Met5A, which were grown in the presence of 60 μΜ of conjugates, were washed and then homogenized in 0.6 M HClO4. Cultures grown in the absence of the conjugates were used as reference. In the isolates, hexamethylenediamine dihydrochloride was added as an internal standard, followed by dansylation and subsequent extraction by toluene. The extracts were dried, reconstituted in acetonitrile/10 mM phosphate buffer pH 4.4 (45:55 v/v) and filtered through a 0.2-μm membrane (Spartan 13/0.2 RC Whatman GmbH, Dassel, Germany) prior to HPLC analysis. The HPLC system included a Varian Star 9010 solvent delivery system with a 250 × 4.6 mm Luna 5 μm C18(2) 100 A column (Phenomenex Co., USA) and a photodiode array detector (Shimadzu SPDM20A).
(§5) The flow rate was set at 1.0 mL/min. Polyamines were quantified at 258 nm and the conjugates at 275 nm. The detection limits for PUT, SPD, and SPM were 52 pmol, 18 pmol, and 36 pmol at 258 nm, respectively. The detection limits for compounds 3 and 4 were 25 pmol and 30 pmol at 275 nm, respectively. All experiments were run in triplicate. The coefficients of variation (C.V.) of the intra-assays were 5–7%, while those of the inter-assays ranged from 13 to 17%. LC Solution Software (Shimadzu) was used for data processing and the results were expressed as nmol/mg protein.

Data set [8] has as its system ZL34 cells. The description is as above. The note with it: ZL34 cells treated with 60 μΜ of compound; for Intracellular compound concentration: mean ± SD, three repetitions. It counts as cell-based, human. As to the method: as §4, §5
Data set [9] concerns Met5A mesothelial immortalized cells. In kind it is cell-based, human. As to the method:
as §1
(§6) The antitumor activity of the conjugates was assessed using the human ZL34 and MeT5A cell lines as previously described. ZL34 and Met5A cells were plated in sterile 6-well microtiter plates and grown in Dulbecco’s modified Eagle’s medium (DMEM), supplemented with 10% heat-inactivated fetal bovine serum and 1% penicillin/streptomycin. Cultures were maintained in a humidified atmosphere with 5% CO2 at 37 °C. Compounds 3 and 4 were added at final concentrations of 30 and 60 μΜ, and then cells were grown for 24, 72 and 96 h. In parallel, solutions of conjugates combined with a ten-fold concentration of SPD were incubated under the same conditions. After treatment, the drug was removed by washing the cells twice with phosphate-buffered saline (PBS). The cells were then trypsinized (0.5 mL trypsin-EDTA×1 solution/well, 5 min at 37 °C), mixed with 1 mL DMEM and collected by centrifugation at 3000 × g for 5 min. Cell viabilities were determined by the trypan blue exclusion assay, using a TC10 automated cell counter (BIORAD). Viable cells were expressed as a percentage of total cells.

Data set [10] deals with ZL34 mesothelioma cells. It counts as cell-based, human. As to the method:
as §1, §6

Where [11] appears, read: wild-type strain, mean ± SD, three independent experiments.

Each structure is given as a SMILES string. Read-outs that look alike come from different tables or passages of the source.

Broadly, the Ki is the equilibrium dissociation constant of an inhibitor or competing ligand from its target. The term EC50 denotes the concentration giving half of the maximal effect. Consider `O=C(N[C@H](CO)[C@H](O)c1ccc([N+](=O)[O-])cc1)C(Cl)Cl` [CAM, Chloramphenicol], for which the Ki in data set [1] was 1.5 ± 0.1 µM. Also, the EC50 in data set [2] came to 2.3 ± 0.6 µM; in data set [3] it was 3.4 ± 0.3 µM; in [4], 6.2 ± 0.5 µM.

For `NCCCN(CCCCN(Cc1ccccc1)Cc1ccccc1)C(=O)CCC(=O)N[C@H](CO)[C@H](O)c1ccc([N+](=O)[O-])cc1` [Compound 3], the “COX2 expression in tumor cells (ZL34)” value in [5] was “significant decrease”. Also, the “COX2 levels in Met5A cells” value in [6] is “affected to a lesser extent”. For the same compound, the inhibition constant Ki in data set [1] is 0.8 ± 0.1 µM. The PUT intracellular level worked out at 7.38 ± 1.93 nmol/mg Protein in [7] and 1.58 ± 0.13 nmol/mg Protein in data set [8]. Also, the SPD intracellular level in [7] is on record as 7.38 ± 1.85 nmol/mg Protein; in data set [8] it was 4.18 ± 1.87 ^1 nmol/mg Protein. The SPM intracellular level in [7] is recorded as 22.50 ± 3.11 nmol/mg Protein; in data set [8], 2.71 ± 1.17 ^2 nmol/mg Protein. Besides, the Intracellular compound concentration in data set [7] is 3.75 ± 0.60 μΜ; in data set [8], 5.96 ± 0.92 μΜ. The EC50 amounted to 8.9 ± 0.7 µM in data set [2], 6.8 ± 0.5 µM in data set [3] (setting [11]) and 11 ± 0.9 µM in data set [4].

On to `O=C(CCC(=O)N(CCCCN(Cc1ccccc1)Cc1ccccc1)CCCN(Cc1ccccc1)Cc1ccccc1)N[C@H](CO)[C@H](O)c1ccc([N+](=O)[O-])cc1` [Compound 4], for which, in data set [5], the “COX2 expression in tumor cells (ZL34)” value is recorded as “significant decrease”. Further, the “COX2 levels in Met5A cells” value in data set [6] is “affected to a lesser extent”. In addition, the inhibition constant (Ki) in [1] is 1.1 ± 0.1 µM. The “Cytotoxicity on immortalized Met5A cells” value in data set [9] is “milder action”. Besides, the “Cytotoxicity / antiproliferative activity on ZL34 cancer cells” value in data set [10] is on record as “demonstrated cytotoxicity”. The results for the PUT intracellular level in data set [7] and in data set [8] were 5.60 ± 1.10 nmol/mg Protein and 2.07 ± 0.91 nmol/mg Protein, respectively. In addition, the values for the SPD intracellular level in [7] and in [8] were 8.14 ± 2.16 nmol/mg Protein and 5.36 ± 2.15 ^1 nmol/mg Protein, respectively. The values for the SPM intracellular level in data set [7] and in data set [8] were 25.80 ± 6.57 nmol/mg Protein and 3.17 ± 1.70 ^2 nmol/mg Protein, respectively. The Intracellular compound concentration in [7] is listed as 7.40 ± 0.80 μΜ; in data set [8] it was 29.00 ± 2.53 μΜ. Also, the concentration for a half-maximal effect (EC50) in data set [2], in [3] (setting [11]) and in data set [4] was greater than 200 µM each time.

Take `O=C(CCC(=O)N[C@H](CO)[C@H](O)c1ccc([N+](=O)[O-])cc1)NCCCCN(Cc1ccccc1)Cc1ccccc1` [Compound 5]: the inhibition constant Ki in data set [1] was 2.6 ± 0.3 µM. Moreover, the “Cytotoxicity / antiproliferative activity on ZL34 cancer cells” value in data set [10] is recorded as “did not show any important antiproliferative activity”. Moreover, the EC50 in [2], in data set [3] (setting [11]) and in data set [4] was greater than 200 µM each time.

Turning to `O=C(CCC(=O)N[C@H](CO)[C@H](O)c1ccc([N+](=O)[O-])cc1)NCCCCCCN(Cc1ccccc1)Cc1ccccc1` [Compound 6], the inhibition constant (Ki) in [1] is 1.3 ± 0.2 µM. The “Cytotoxicity / antiproliferative activity on ZL34 cancer cells” value in [10] is “did not show any important antiproliferative activity”. The EC50 in data set [2], in data set [3] (setting [11]) and in data set [4] was greater than 200 µM throughout.

Consider `O=C(CCC(=O)N[C@H](CO)[C@H](O)c1ccc([N+](=O)[O-])cc1)NCCCN(Cc1ccccc1)Cc1ccccc1` [Compound 7], for which the Ki in [1] was 1 ± 0.1 µM. For the same compound, the “Cytotoxicity / antiproliferative activity on ZL34 cancer cells” value in data set [10] is given as “did not show any important antiproliferative activity”. In addition, the EC50 in [2], in data set [3] (setting [11]) and in data set [4] was greater than 200 µM each time.
